Results published in patent publication US4008323A, “Method of reducing cholesterol using certain aromatic keto acids” (Pierre Fabre S.A., priority 1974, dated 1977).
Like-named read-outs stand apart in the source and are kept apart here.

How the values were obtained:
[1] = tested on: carrageenin edema; test: Carrageenin edema test in rats (antiinflammatory); type: in vivo; details: for % var. / action (variation of paw volume increase vs controls) / change in vivo at 75 mg/kg: 75 mg/kg oral; for change in vivo at 75 mg/kg / change in vivo at 300 mg/kg / change in vivo at 200 mg/kg: Rattus norvegicus; for change in vivo at 300 mg/kg: 300 mg/kg oral; for change in vivo at 200 mg/kg: 200 mg/kg oral
Experimental: The antiinflammatory properties were shown by the carrageenin edema test in rats, the products having been administered orally 1 hour before the intrapodal injection of 0.05 ml of a 2% suspension of carrageenin; the volume of the rat's paw was measured by plethysmoscopy 3, 4 and 6 hours afterwards.
The experiment concerned for each lot […]; one lot of animals receiving only the vehicle (2 ml/100 g of Tween + water) which served for the administration of the products, constituted the control lot. The following table sets forth the results obtained: […]

[2] = Acute toxicity in mice, oral LD50 (method of Miller & Tainter); details: mouse, in vivo, mortality determined 48 hours after administration
Experimental: The chemical compounds previously described were submitted to toxicity tests. It was determined in mice by oral administration and was calculated in accordance with the method of MILLER & TAINTER. It is generally low and greater than 1000 mg/kg.

[3] = Solubility properties; type: physicochemical; details: for Solubility in alcohol of 95° GL: alcohol / ethanol of 95° GL; for Solubility in water: in words; for Solubility in ethyl alcohol: ethyl alcohol / ethanol / alcohol
[4] = tested on: writhings induced by acetic acid; test: Writhing test, acetic acid (analgetic); type: in vivo, male mouse; details: 200 mg/kg by mouth, t + 60 to t + 70 min
Experimental: The administration of the compounds is effected by mouth at the time t. […] The determination of the writhings is effected from t + 60 min. to t + 70 min. The vehicle used for the administration of the products is a 5% solution of Tween 80 in 0.9% NaCl which will serve as control.

[5] = tested on: writhings induced by phenylbenzoquinone; test: Writhing test, phenylbenzoquinone (analgetic); type: in vivo, mice; details: 200 mg/kg oral, t + 35 to t + 40 min
Experimental: The analgetic properties of certain compounds were shown in mice by the "writhing test" method, that is to say with reference to the writhings induced by phenylbenzoquinone. The administration of the product is effected orally at time t; it is followed by the intraperitoneal injection of 0.2% phenylbenzoquinone at t + 30 min. The determination of the writhings is effected from t + 35 min. to t + 40 min. One lot of animals receiving only the vehicle (5% Tween 80 in 0.9% NaCl) serves as control.

[6] = 3 hrs, read-out: % increase in volume of the paw, mean (m)
[7] = 4 hrs, read-out: % increase in volume of the paw, mean (m)
[8] = 6 hrs, read-out: % increase in volume of the paw, mean (m)
[9] = read-out: % mean variation of the volume of the paw at 3, 4 and 6 hrs
[10] = sodium salt, water, read-out: Solubility in form of sodium salt
[11] = + 3 hrs, read-out: % increase in volume of the paw, mean (m)
[12] = + 3 hrs, read-out: Action (variation of paw volume increase vs controls)
[13] = + 4 hrs, read-out: % increase in volume of the paw, mean (m)
[14] = + 4 hrs, read-out: Action (variation of paw volume increase vs controls)
[15] = + 6 hrs, read-out: % increase in volume of the paw, mean (m)
[16] = + 6 hrs, read-out: Action (variation of paw volume increase vs controls)

CC(=CC(=O)c1ccccc1)C(=O)Nc1cccc(C(F)(F)F)c1 [F 1442, 2-methyl 4-oxo 4-phenyl N(m-trifluoromethylphenyl) 2-butenamide]
% var. / action (variation of paw volume increase vs controls) ([1]; 3 hrs): -16% | % var. / action (variation of paw volume increase vs controls) ([1]; 4 hrs): -14% | % var. / action (variation of paw volume increase vs controls) ([1]; 6 hrs): -11% | change in vivo at 75 mg/kg [1, 6]: 50% | change in vivo at 75 mg/kg [1, 7]: 51% | change in vivo at 75 mg/kg [1, 8]: 49% | change in vivo at 75 mg/kg [1, 9]: -13% | LD50 at 48 h [2]: > 1000 mg/kg | Solubility in N-methyl pyrrolidone [3]: 40% | Solubility in alcohol of 95° GL [3]: 30% | Solubility in NN-dimethyl acetamide [3]: 40% | Solubility in water ([3]; water): insoluble

C=C(CC(=O)c1ccc(Oc2ccccc2)cc1)C(=O)O [Example 4, 2-methylene 4-oxo 4-(paraphenoxyphenyl) butyric acid]
Solubility in NN dimethyl formamide ([3]; NN dimethyl formamide): 50% | Solubility in acetone [3]: 10% | Solubility in chloroform ([3]; chloroform): 5% | Solubility in ethyl alcohol [3]: 3% | Solubility in propylene glycol [3]: 1% | solubility [3, 10]: 100000 µg/mL | Solubility in water ([3]; water): insoluble

CC(=CC(=O)c1ccccc1)C(=O)N1CCOCC1 [F 1443, N-(4-phenyl 4-oxo 2-methyl 2-butenoyl)morpholine]
Solubility in N-methyl pyrrolidone [3]: 5% | Solubility in alcohol of 95° GL [3]: 1.5% | Solubility in NN-dimethyl acetamide [3]: 5% | Solubility in water ([3]; water): insoluble

C=C(CC(=O)c1ccc(-c2ccccc2Cl)cc1)C(=O)OC [F 1440, 2-methylene 4-oxo 4-(4'-o-chlorophenylphenyl) methyl butyrate]
% var. / action (variation of paw volume increase vs controls) ([1]; 3 hrs): -22% | % var. / action (variation of paw volume increase vs controls) ([1]; 4 hrs): -15% | % var. / action (variation of paw volume increase vs controls) ([1]; 6 hrs): -9% | change in vivo at 75 mg/kg [1, 6]: 47% | change in vivo at 75 mg/kg [1, 7]: 50.5% | change in vivo at 75 mg/kg [1, 8]: 51% | change in vivo at 75 mg/kg [1, 9]: -15% | LD50 at 48 h [2]: > 1000 mg/kg | Solubility in N-methyl pyrrolidone [3]: 60% | Solubility in NN-dimethyl acetamide [3]: 60% | Solubility in water ([3]; water): insoluble

C=C(CC(=O)c1ccc(OC)c(-c2ccccc2)c1)C(=O)O [F 1497, 2-methylene 4-oxo 4-(3' phenyl, 4'-methoxyphenyl) butyric acid]
Solubility in alcohol of 95° GL [3]: 6% | Solubility in NN-dimethyl acetamide [3]: 30% | Solubility in water ([3]; water): insoluble

C=C(CC(=O)c1ccc(-c2ccc(Br)cc2)cc1)C(=O)O [F 1378]
change in vivo at 300 mg/kg [1, 11]: 45.4% | change in vivo at 300 mg/kg [1, 12]: -26% | change in vivo at 300 mg/kg [1, 13]: 47.9% | change in vivo at 300 mg/kg [1, 14]: -21% | change in vivo at 300 mg/kg [1, 15]: 52.4% | change in vivo at 300 mg/kg [1, 16]: -8% | change in vivo at 300 mg/kg [1, 9]: -18.3%

C=C(CC(=O)c1ccc(-c2ccccc2Cl)cc1)C(=O)O [F 1496, 2-methylene 4-oxo 4-(4'-orthochlorophenylphenyl) arginine butyrate]
Solubility in water ([3]; water): soluble

C=C(CC(=O)c1ccc(-c2ccc(Br)cc2)cc1)C(=O)O [Example 5, 2-methylene 4-oxo 4-(phenyl-4'-parabromophenyl) butyric acid]
Solubility in N-methyl pyrrolidone [3]: 25% | Solubility in ethyl alcohol [3]: 1% | Solubility in water ([3]; water): insoluble

C=C(CC(=O)c1ccc(Oc2ccccc2)cc1)C(=O)O [F 1380]
change in vivo at 200 mg/kg [1, 11]: 50.3% | change in vivo at 200 mg/kg [1, 12]: -18% | change in vivo at 200 mg/kg [1, 13]: 52.8% | change in vivo at 200 mg/kg [1, 14]: -12% | change in vivo at 200 mg/kg [1, 15]: 55.6% | change in vivo at 200 mg/kg [1, 16]: -3% | change in vivo at 200 mg/kg [1, 9]: -11%

C=C(CC(=O)c1cccc2ccccc12)C(=O)O [F 1494, 2-methylene 4-oxo 4-naphthalene butanoic acid]
Solubility in N-methyl pyrrolidone [3]: 50% | Solubility in NN-dimethyl acetamide [3]: 50% | Solubility in ethyl alcohol [3]: 3% | Solubility in water ([3]; water): insoluble

C=C(CC(=O)c1ccc2c(c1)CCCC2)C(=O)O [F 1495, 2-methylene 4-oxo 4-(1'-2'-3'-4'-tetrahydronaphthalene) butyric acid]
Solubility in N-methyl pyrrolidone [3]: 50% | Solubility in alcohol of 95° GL [3]: 8% | Solubility in NN-dimethyl acetamide [3]: 50% | Solubility in water ([3]; water): insoluble

C=C(CC(=O)c1ccc(Cl)cc1)C(=O)O [F 1352, 2-methylene 4-oxo 4-(parachlorophenyl) butyric acid]
change in vivo at 300 mg/kg [1, 11]: 35.8% | change in vivo at 300 mg/kg [1, 12]: -28% | change in vivo at 300 mg/kg [1, 13]: 37.9% | change in vivo at 300 mg/kg [1, 14]: -24% | change in vivo at 300 mg/kg [1, 15]: 37.3% | change in vivo at 300 mg/kg [1, 16]: -19% | change in vivo at 300 mg/kg [1, 9]: -23.6% | % Decrease (of writhings) [4]: 40,3% | Mean No. of Writhings [4]: 26,6 | Solubility in N-methyl pyrrolidone [3]: 25% | Solubility in ethyl alcohol [3]: 3% | solubility [3, 10]: 10000 µg/mL | Solubility in water ([3]; water): insoluble

CC(=O)Oc1ccccc1C(=O)O [acetylsalicyclic acid, reference compound]
% Decrease (of writhings) [4]: 36,6% | Mean No. of Writhings [4]: 24,7

CC(=CC(=O)c1ccc(-c2ccccc2Cl)cc1)C(=O)Nc1cccc(C(F)(F)F)c1 [F 1441]
Solubility in ethyl alcohol [3]: 6% | Solubility in water ([3]; water): insoluble

C=C(CC(=O)c1ccccc1)C(=O)O [F 1350, 2-methylene 4-oxo 4-phenyl butyric acid]
change in vivo at 300 mg/kg [1, 11]: 34.3% | change in vivo at 300 mg/kg [1, 13]: 39.7% | change in vivo at 300 mg/kg [1, 15]: 46.1% | change in vivo at 300 mg/kg [1, 16]: 0% | change in vivo at 300 mg/kg [1, 9]: -17% | % Decrease (of writhings) [4]: 42,3% | Mean No. of Writhings [4]: 25,7 | Solubility in acetone [3]: 6% | Solubility in NN-dimethyl acetamide [3]: 10% | Solubility in dimethyl sulfoxide ([3]; dimethyl sulfoxide): 25% | Solubility in ethyl alcohol [3]: 3% | solubility [3, 10]: 10000 µg/mL | Solubility in water ([3]; water): insoluble

CC(=CC(=O)c1ccccc1)C(=O)O [F 1351, 2-methyl 4-oxo 4-phenyl 2-butenoic acid]
change in vivo at 300 mg/kg [1, 11]: 29.7% | change in vivo at 300 mg/kg [1, 12]: -41% | change in vivo at 300 mg/kg [1, 13]: 33.8% | change in vivo at 300 mg/kg [1, 14]: -32% | change in vivo at 300 mg/kg [1, 15]: 40.6% | change in vivo at 300 mg/kg [1, 16]: -12% | % Decrease (of writhings) [4]: 48,2% | Mean No. of Writhings [4]: 28,0 | Solubility in ethyl alcohol [3]: 5% | Solubility in propylene glycol [3]: 3% | solubility [3, 10]: 10000 µg/mL

C=C(CC(=O)c1ccc(C2CCCCC2)cc1)C(=O)O [F 1353, 2-methylene 4-oxo 4-(paracyclohexylphenyl) butyric acid]
Solubility in NN-dimethyl acetamide [3]: 20% | Solubility in ethyl alcohol [3]: 3% | Solubility in propylene glycol [3]: 1% | solubility ([3]; water with sodium bicarbonate, water + sodium bicarbonate, read-out: Solubility in water by addition of sodium bicarbonate): 10000 µg/mL | Solubility in water ([3]; water): insoluble

C=C(CC(=O)c1ccc(-c2ccc(Cl)cc2)cc1)C(=O)O [F 1449, 2-methylene 4-oxo 4-(4' p-chlorophenylphenyl) butyric acid]
% var. / action (variation of paw volume increase vs controls) ([1]; 3 hrs): -29% | % var. / action (variation of paw volume increase vs controls) ([1]; 4 hrs): -24% | % var. / action (variation of paw volume increase vs controls) ([1]; 6 hrs): -20% | change in vivo at 75 mg/kg [1, 6]: 42% | change in vivo at 75 mg/kg [1, 7]: 45% | change in vivo at 75 mg/kg [1, 8]: 44.5% | change in vivo at 75 mg/kg [1, 9]: -24% | % Decrease (of writhings) [5]: 17% | Mean No. of Writhings [5]: 27,4 | Solubility in N-methyl pyrrolidone [3]: 30% | Solubility in absolute alcohol ([3]; absolute alcohol): 1% | Solubility in NN-dimethyl acetamide [3]: 30% | Solubility in water ([3]; water): insoluble

CC(=CC(=O)c1ccc(-c2ccccc2)cc1)C(=O)O [F 1448, 2-methyl 4-oxo 4-(4'-phenylphenyl) 2-butenoic acid]
Solubility in N-methyl pyrrolidone [3]: 20% | Solubility in NN-dimethyl acetamide [3]: 25% | Solubility in ethyl alcohol [3]: 1% | Solubility in water ([3]; water): insoluble
